Assay results published in patent US20080076750A1, “Azetidinone Derivatives and Methods of Use Thereof” (priority 2006, published 2008).

Biological target: T1, TRPV1 (Homo sapiens, UniProt Q8NER1)
T1 construct: expressed in transfected cells; host or cells: HEK293-Tet-OFF
Assay: TRPV1 Screening Assay (FLIPR)
Type: cell-based
Settings: HEK293-TetOFF-TRPV1, PMA, read-out: VR1 flipr PMA IC50

T1 sequence (Q8NER1 whole entry, species assumed): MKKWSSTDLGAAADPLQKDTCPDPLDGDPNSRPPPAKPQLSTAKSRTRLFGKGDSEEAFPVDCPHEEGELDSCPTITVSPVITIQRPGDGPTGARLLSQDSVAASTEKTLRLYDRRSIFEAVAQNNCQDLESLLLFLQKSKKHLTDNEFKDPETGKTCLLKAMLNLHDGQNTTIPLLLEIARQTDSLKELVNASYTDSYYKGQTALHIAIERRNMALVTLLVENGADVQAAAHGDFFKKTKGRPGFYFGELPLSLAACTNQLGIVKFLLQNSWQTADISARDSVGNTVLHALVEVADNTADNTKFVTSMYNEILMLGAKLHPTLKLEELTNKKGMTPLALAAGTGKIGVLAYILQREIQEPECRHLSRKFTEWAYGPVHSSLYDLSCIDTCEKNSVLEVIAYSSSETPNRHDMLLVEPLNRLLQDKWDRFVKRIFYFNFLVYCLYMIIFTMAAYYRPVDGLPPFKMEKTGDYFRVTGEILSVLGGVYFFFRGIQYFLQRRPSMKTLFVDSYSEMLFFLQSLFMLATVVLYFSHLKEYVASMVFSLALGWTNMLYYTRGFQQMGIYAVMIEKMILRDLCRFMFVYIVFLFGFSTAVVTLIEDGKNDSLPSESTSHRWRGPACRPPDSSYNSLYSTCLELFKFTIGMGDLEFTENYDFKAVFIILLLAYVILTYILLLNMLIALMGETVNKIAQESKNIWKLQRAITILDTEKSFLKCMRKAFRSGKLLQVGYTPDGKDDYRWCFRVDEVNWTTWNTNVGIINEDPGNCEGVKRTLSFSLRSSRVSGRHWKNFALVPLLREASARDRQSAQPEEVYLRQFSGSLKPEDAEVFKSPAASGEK

IC50 [nM] | Structure (SMILES)
210 | O=C(Nc1ccc(C(F)(F)F)cc1)N1CCC2(CC1)C(=O)N(c1cncnc1)C2c1ccccc1 (centres unmarked)
140 | O=C(Nc1ccc(Oc2ccccc2)cc1)N1CCC2(CC1)C(=O)N(c1ccccc1)C2c1ccccn1 (centres unmarked)
43 | CC(C)c1ccc(NC(=O)N2CCC3(CC2)C(=O)N(c2ccccc2)C3c2ccccc2)cc1 (centres unmarked) [drawing 426]
81 | CC(C)c1ccc(NC(=O)N2CCC3(CC2)C(=O)N(c2ccccc2)C3c2ccccn2)cc1 (centres unmarked)

Biological target: T2, human NPC1L1 (Homo sapiens, UniProt Q9UHC9)
T2 construct: expressed in transfected cells; host or cells: HEK-293 (geneticin selection)
T2 sequence (Q9UHC9 22-1359): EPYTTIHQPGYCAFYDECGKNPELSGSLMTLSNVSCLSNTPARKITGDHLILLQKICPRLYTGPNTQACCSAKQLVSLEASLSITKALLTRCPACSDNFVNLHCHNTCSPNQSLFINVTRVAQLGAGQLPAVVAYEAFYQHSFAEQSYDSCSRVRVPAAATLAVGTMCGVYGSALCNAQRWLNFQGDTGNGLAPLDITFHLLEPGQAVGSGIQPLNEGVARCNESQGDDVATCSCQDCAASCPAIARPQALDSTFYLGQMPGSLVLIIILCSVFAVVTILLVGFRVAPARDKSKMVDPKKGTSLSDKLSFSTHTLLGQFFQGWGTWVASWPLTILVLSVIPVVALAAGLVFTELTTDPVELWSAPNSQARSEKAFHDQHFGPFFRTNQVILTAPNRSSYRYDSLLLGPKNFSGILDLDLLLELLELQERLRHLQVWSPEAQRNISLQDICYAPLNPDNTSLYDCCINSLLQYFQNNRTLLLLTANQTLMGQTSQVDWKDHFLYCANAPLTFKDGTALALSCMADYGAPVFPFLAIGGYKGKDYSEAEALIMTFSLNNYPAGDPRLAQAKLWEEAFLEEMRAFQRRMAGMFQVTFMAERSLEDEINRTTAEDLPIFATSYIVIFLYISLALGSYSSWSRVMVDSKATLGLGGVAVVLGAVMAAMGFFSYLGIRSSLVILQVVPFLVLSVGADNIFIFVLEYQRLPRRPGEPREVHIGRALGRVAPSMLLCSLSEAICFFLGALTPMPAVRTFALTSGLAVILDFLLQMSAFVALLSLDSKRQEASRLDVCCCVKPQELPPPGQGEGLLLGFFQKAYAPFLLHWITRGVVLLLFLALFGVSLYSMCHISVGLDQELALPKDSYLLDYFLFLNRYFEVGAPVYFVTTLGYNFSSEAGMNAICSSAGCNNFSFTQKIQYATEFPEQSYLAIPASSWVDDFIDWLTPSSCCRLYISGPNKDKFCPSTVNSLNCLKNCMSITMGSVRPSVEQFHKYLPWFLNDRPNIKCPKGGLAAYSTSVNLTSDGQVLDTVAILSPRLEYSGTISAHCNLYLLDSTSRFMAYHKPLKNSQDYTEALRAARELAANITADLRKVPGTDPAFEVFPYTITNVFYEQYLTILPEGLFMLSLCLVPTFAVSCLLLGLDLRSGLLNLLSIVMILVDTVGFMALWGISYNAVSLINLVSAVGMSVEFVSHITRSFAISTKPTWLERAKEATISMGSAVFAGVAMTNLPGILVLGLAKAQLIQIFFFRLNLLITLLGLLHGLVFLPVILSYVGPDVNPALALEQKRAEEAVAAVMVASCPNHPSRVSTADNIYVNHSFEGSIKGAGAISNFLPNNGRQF
Assay: NPC1L1 Binding Assay, human
Settings: HEK-293 cells expressing human NPC1L1; competition with 250 nM BODIPY-labeled glucuronidated ezetimibe, 4 h at 37° C.
Procedure: HEK-293 cells expressing human NPC1L1 were plated into 384-well black/clear plates (BD Biosciences, Bedford Mass.) for binding experiments the following day. Cell growth media (DMEM, 10% fetal calf serum, 1 mg/mL geneticin, 100 Units/mL penicillin) was aspirated. Cell growth media ([…]) containing 250 nM BODIPY-labeled glucuronidated ezetimibe was added to each well. Cell growth media ([…] containing the indicated concentration of compound was then added to the wells unlabeled glucuronidated ezetimibe […]) was used to determine nonspecific binding. The binding reaction was allowed to proceed for 4 h at 37° C. Subsequently the cell growth media was aspired and the cells washed once with PBS. The remaining fluorescent labeled glucuronidated ezetimibe bound to the cells was quantified using a FlexStation plate reader (Molecular Devices, Sunnyvale Calif.) to measure fluorescence intensity. Ki values were determined from competition binding curves (n=4 for each point) using Prism and Activity Base software.

Ki [nM] | Structure (SMILES)
2490 | O=C(Nc1cccc2ccccc12)N1CCC2(CC1)C(=O)N(c1ccccc1)C2c1ccccc1 (centres unmarked)
6360 | COc1ccc(Cl)cc1NC(=O)N1CCC2(CC1)C(=O)N(c1ccccc1)C2c1ccccc1 (centres unmarked)
8190 | Cc1cccc(C)c1NC(=O)N1CCC2(CC1)C(=O)N(c1ccccc1)C2c1ccccc1 (centres unmarked)
8130 | O=C(Nc1ccccc1C(F)(F)F)N1CCC2(CC1)C(=O)N(c1ccccc1)C2c1ccccc1 (centres unmarked)

Biological target: T3, human Cav3.2 (Homo sapiens, UniProt O95180)
T3 construct: expressed in transfected cells
Assay: IonWorks Screen for hCaV3.2
Type: cell-based
Settings: IonWorks HT, HEK cells expressing human Cav3.2, 10 minutes incubation, pulse 10; read-out: IW hCav3.2 IC50
Excerpt: Functional evaluation of voltage-gated ion channels can be used to determine potency and/or single concentration efficacy of the Azetidinone Derivatives. Two different methodologies can be used to measure ion currents: the Ionworks HT (Molecular Devices, Sunnyvale, Calif.) a moderate throughput voltage clamp screening platform that utilizes 96-well compound plates and conventional whole cell patch clamp for lower throughput, higher fidelity determinations.
HEK cells are transiently transfected and then selected for stable heterologous expression of different channel proteins of interest. Calcium channel cell lines expressed a resting potassium current, human Kir2.1, and the pore forming α-subunit of voltage-gated calcium channels. In the case of Cav2.1 cells the auxiliary subunit, β2α, is also expressed. Calcium channel lines that are used to generate the data will express either human Cav3.2, rat Cav3.2 or human Cav2.1. The human heart sodium channel, hNav1.5, are stably expressed in CHO cells.
Cell lines can be grown at 37° C. in humidified incubators, equilibrated with 95% air/5% CO2. CHO cells can be grown in Ham's F-12 medium. HEK cells can be grown in DMEM. All media are supplemented with 10% heat-inactivated fetal bovine serum, penicillin, streptomycin and appropriate selection antibiotics (zeocin, geneticin and/or hygromycin). Cells are passaged when 80% confluent or less.
IonWorks Screen for hCaV3.2
The extracellular buffer for experiments using this instrument contained the following (mM) (NaCl 125, HEPES 10, KCl 5.4, CaCl2 1.8, MgCl2 1.8, 0.2 BaCl2 pH 7.35). The IonWorks uses amphotericin to gain electrical access to the cell interior. The internal solution contained (mM concentrations): 130 K-gluconate, 20 KCl, 5 HEPES-KOH (pH 7.25), 2 CaCl2, 1 MgCl2. Amphotericin added at 5 mg in 65 mL when present (in 650 μL DMSO). All internal and external solutions for this experiment contain 1% DMSO. Cells were acutely trypsinized from a T-75 flask and resuspended in extracellular buffer at a density of 2×10^5 cells/mL.
Experiments were performed at room temperature. Transmembrane potential was held at −100 mV for 5 seconds prior to running the voltage protocol. During this time leak currents were measured during a step to −110 mV (200 milliseconds), T-type calcium currents were activated with a 250 millisecond step to −20 mV. This depolarization step was repeated for a total of 10 pulses with an interpulse interval of 1 second. Data were excluded if the following acceptance criteria were not met: total resistance for the pre-compound scan>65 MΩ, pre-compound current>250 pA, post compound total resistance>50 MΩ.
T-type currents were measured as the peak inward current minus the current at the end of the 250 msec step to −20 mV. After the recoding configuration was established there was a pre-compound measurement of current amplitude. Compound was added as a 3× solution containing 1% DMSO. After incubation with compound for 10 minutes currents were measured again. The current amplitude after compound addition was divided by the pre-compound current for pulse 10 to determine the fraction of current remaining after compound addition. For each compound, 8-point concentration-effect relationships were measured with ½ log serial dilutions.

T3 sequence (O95180 whole entry): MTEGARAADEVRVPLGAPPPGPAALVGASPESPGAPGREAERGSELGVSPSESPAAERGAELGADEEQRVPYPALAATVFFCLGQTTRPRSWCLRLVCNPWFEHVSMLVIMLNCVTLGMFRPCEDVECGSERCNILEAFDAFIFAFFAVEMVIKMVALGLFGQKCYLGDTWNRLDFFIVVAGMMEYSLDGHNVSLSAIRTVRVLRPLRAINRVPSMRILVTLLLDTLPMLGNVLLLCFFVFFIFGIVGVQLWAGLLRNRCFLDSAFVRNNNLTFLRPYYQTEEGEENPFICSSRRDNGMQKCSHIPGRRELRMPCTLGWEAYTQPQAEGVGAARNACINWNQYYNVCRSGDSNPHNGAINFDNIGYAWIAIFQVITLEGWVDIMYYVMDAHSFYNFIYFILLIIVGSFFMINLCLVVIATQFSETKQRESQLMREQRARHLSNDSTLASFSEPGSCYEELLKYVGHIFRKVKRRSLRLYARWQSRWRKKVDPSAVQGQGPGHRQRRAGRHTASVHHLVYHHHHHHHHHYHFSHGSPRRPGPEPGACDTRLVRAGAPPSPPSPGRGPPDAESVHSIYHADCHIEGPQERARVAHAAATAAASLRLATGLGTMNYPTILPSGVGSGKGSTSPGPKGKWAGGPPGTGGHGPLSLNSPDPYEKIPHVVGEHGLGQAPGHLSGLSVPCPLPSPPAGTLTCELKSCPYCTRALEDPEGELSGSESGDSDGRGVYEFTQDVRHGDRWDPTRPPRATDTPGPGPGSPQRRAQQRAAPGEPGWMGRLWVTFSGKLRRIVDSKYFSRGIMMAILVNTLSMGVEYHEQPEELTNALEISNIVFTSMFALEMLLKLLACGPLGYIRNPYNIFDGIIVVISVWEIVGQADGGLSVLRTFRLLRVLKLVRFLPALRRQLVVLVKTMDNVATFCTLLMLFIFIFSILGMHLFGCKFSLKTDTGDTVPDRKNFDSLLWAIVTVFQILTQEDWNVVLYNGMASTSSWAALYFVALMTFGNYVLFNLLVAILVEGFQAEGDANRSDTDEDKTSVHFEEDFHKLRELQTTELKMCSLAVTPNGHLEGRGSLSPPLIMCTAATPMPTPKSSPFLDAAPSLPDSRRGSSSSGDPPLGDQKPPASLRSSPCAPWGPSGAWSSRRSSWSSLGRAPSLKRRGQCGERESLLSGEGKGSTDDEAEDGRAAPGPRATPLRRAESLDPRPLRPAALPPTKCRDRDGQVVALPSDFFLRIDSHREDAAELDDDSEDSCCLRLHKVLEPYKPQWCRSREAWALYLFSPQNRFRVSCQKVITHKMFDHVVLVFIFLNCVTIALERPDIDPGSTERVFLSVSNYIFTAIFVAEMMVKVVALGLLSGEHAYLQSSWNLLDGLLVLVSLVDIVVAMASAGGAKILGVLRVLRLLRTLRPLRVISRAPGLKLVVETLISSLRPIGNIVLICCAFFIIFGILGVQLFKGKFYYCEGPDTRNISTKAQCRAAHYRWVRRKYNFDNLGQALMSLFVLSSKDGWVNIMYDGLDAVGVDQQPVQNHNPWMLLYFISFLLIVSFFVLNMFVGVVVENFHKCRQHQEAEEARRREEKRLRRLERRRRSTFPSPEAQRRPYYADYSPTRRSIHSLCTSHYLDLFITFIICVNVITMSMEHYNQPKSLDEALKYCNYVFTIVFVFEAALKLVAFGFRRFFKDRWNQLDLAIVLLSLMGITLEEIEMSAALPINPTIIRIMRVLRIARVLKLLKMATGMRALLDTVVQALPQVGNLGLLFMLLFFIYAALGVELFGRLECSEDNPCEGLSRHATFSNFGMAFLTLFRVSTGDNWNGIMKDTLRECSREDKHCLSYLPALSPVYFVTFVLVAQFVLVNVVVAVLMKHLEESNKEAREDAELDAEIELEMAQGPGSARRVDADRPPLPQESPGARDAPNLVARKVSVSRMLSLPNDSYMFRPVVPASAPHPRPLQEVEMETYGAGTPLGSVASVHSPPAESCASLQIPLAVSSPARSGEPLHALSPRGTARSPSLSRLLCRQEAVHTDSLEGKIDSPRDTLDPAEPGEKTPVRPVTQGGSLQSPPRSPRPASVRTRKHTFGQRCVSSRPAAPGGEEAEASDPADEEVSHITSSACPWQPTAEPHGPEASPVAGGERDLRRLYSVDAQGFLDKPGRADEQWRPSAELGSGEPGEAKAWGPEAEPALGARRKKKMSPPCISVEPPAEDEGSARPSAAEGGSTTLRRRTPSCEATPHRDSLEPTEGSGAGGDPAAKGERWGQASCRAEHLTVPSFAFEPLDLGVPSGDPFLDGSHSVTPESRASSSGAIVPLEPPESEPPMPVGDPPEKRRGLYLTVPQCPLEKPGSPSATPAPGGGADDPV

IC50 [nM] | Structure (SMILES)
359 | O=C(Nc1ccc(F)c(F)c1)N1CCC2(CC1)C(=O)N(c1ccccc1)C2c1ccc(Cl)cc1 (centres unmarked)
192 | Cc1c(Cl)cccc1NC(=O)N1CCC2(CC1)C(=O)N(c1ccccc1)C2c1ccccc1 (centres unmarked) [drawing 414]
240 | O=C(Nc1ccccc1)N1CCC2(CC1)C(=O)N(c1cccc(Cl)c1)C2c1ccccn1 (centres unmarked)
423 | CC(C)N1C(=O)C2(CCN(C(=O)Nc3ccc(Cl)cc3)CC2)C1c1ccc(Cl)cc1 (centres unmarked)
304 | CC(C)N1C(=O)C2(CCN(C(=O)Nc3ccc(F)c(F)c3)CC2)C1c1ccc(Cl)cc1 (centres unmarked)
212 | CC(C)N1C(=O)C2(CCN(C(=O)Nc3cc(Cl)cc(Cl)c3)CC2)C1c1ccc(Cl)cc1 (centres unmarked)
293 | O=C(Nc1ccc(F)c(F)c1)N1CCC2(CC1)C(=O)N(c1ccc(F)cc1)C2c1ccc(Cl)cc1 (centres unmarked)
490 | O=C(Nc1ccc(F)c(F)c1)N1CCC2(CC1)C(=O)N(c1ccc(F)cc1)C2c1ccccn1 (centres unmarked)
117 | O=C(Nc1ccc(F)c(F)c1)N1CCC2(CC1)C(=O)N(c1cccc(Cl)c1)C2c1ccccn1 (centres unmarked)
504 | O=C(Nc1cc(F)cc(F)c1)N1CCC2(CC1)C(=O)N(c1ccc(F)cc1)C2c1ccc(Cl)cc1 (centres unmarked)

Biological target: T1, TRPV1
Assay: TRPV1 Screening Assay (FLIPR)
Type: cell-based
Settings: HEK293-TetOFF-TRPV1, capsaicin (50 nM final), read-out: VR1 flipr CAPSAICIN IC50
Excerpt: • 1) Cell line: HEK293-Tet^OFF-TRPV1 • 2) Media: MEM (Invitrogen) • 3) 10% Tet-FBS (Clontech #8630-1) • 4) Fungizone (Gibco #15290-018 (100×)) • 5) Penn/Strep (Gibco #15140-122 (100×)) • 6) Geneticin (Gibco #10131-027 (100×)) • 7) Hygromycin (Clontech #8057-1) • 8) Doxycycline (Clontech #8634-1) • 9) Trypsin/EDTA (Gibco #25200-056) • 10) 100 mm cell culture plates (Falcon #3003) • 11) 96-well poly-D-lysine plates (Fisher #08-774-256) • 12) Hank's Balanced Salt Solution (HBSS) (GIBCO #14025-092) • 13) HEPES Buffer (GIBCO #15630-080) • 14) 30% BSA (Research Organics #1334A) • 15) Probenecid (Sigma P-8761) • 16) Fluo-4, AM (50 μg) (Molecular robes F-23917) • 17) Pluronic F-127 20% (Molecular Probes P-3000). • 18) capsazepine (Sigma C-191) • 19) capsaicin (Sigma M-2028) • 20) compound plates (NUNC #442587) • 21) black pipet tips 96-well FLIPR (Robbins Scientific 1043-24-0) • 22) Additional reagents available from Fisher: methanol, DMSO, NaOH Reagent Preparation: 1) Cells: HEK293-Tet^OFF-TRPV11
• and Doxycycline 2.5 μg/mL final (from a 1000× stock in PBS) • Cells must be fed and/or split every 2-3 days (to maintain transcriptional repression with Doxycycline). • Must be split no more than 1:5 (50-75% confluency) to maintain growth and viability. • Grown on regular tissue culture plates (e.g. Falcon 3003-100 mm) • SpliT-cells via Trypsin/EDTA: incubate with trypsin at room temperature no longer than 5 min (HEK293 cells have a tendency to ball up if over trypsinized). • Two days prior to assay, the cells are split into 96-well plates in cell media in the absence of doxycycline at a concentration of 40,000 cells/well in a volume of 200 μL, 2) FLIPR buffer is prepared fresh:
Add 5 mL of Probenecid Solution, prepared as follows: 710 mg of probenecid (Sigma P-8761) is solubilized in 5 mL of 1 N NaOH, 5 mL of above buffer s added for final volume of 10 mL (of which 5 mL goes back into FLIPR buffer)
Combine 42 μL of dye mixture with 11 mL of FLIPR buffer/96-well plate.
Stock solution of 0.1 M capsaicin is prepared in MeOH (50 mg+1.6 mL MeOH). Store 50 μL aliquots at −80° C.
For assay: • a) Dilute stock by adding 0.8 μL into 1 mL of MeOH (final=80 μM). • b) Add 50 μL of diluted stock to 20 mL of FLIPR buffer (final=0.2 μM) • c) Agonist solution is added 150 μL/well to 96-well plate. • d) Final agonist concentration on cells will be 50 nM. […] Laser is adjusted upwards for an average signal≧10,000/well and less than 10% variability. 7) Compound addition conditions are as follows: • FLIPR setup (dual sequence parameters): • Sequence 1: • First interval 1 sec/60 counts • Second interval 6 sec/50 counts • Fluid addition=50 μL • Pipettor=110 μL • Dispense Speed=30 μL/sec • Sequence 2: • Second interval 1 sec/60 counts • Second interval 6 sec/40 counts • Fluid addition=50 μL • Pipettor height=140 μL • Dispense Speed=50 μL/sec Data Analysis:
1) Data from both additions is reported as Max-Min for each well

IC50 [nM] | Structure (SMILES)
184 | O=C(Nc1ccc(C(F)(F)F)cc1)N1CCC2(CC1)C(=O)N(c1cncnc1)C2c1ccccc1 (centres unmarked)
171 | O=C(Nc1ccc(C(F)(F)F)cc1)N1CCC2(CC1)C(=O)N(c1ccccc1)C2c1ccccc1 (centres unmarked)
259 | O=C(Nc1ccc(Oc2ccccc2)cc1)N1CCC2(CC1)C(=O)N(c1ccccc1)C2c1ccccn1 (centres unmarked)
81 | CC(C)c1ccc(NC(=O)N2CCC3(CC2)C(=O)N(c2ccccc2)C3c2ccccc2)cc1 (centres unmarked) [drawing 426]
70 | CC(C)c1ccc(NC(=O)N2CCC3(CC2)C(=O)N(c2ccccc2)C3c2ccccn2)cc1 (centres unmarked)
